Laboratory results as given in the supplement of paper PMC10307832.

How the values were obtained:
Test in all cases: relative viability (nuclei count vs DMSO), 5 days (fraction); higher = more cells survive
[1] = compound: O=C(NC1CCNCC1)c1n[nH]cc1NC(=O)c1c(Cl)cccc1Cl [AT-7519] + O=C(CCCCCCC(=O)Nc1ccccc1)NO [Vorinostat] (partner 1 µM)
Summary of the method: (§1)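 Medians of duplicate plates are given as relative viability. That measure is the nuclei count in treated wells divided by the count in vehicle wells. Counts were taken on 4× images of lung cancer cell lines in 1536-well plates, 5 days after pin-tool dosing the day after seeding with one drug alone or a fixed anchor-drug dose plus five library-drug doses (not always all listed) in √10 steps.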

[2] = compound: C1=CC2=C(C=C(C(=C2N=C1)O)N=NC3=CC4=C(C=C3)C=C(C=C4)S(=O)(=O)O)S(=O)(=O)O + O=C(c1cc(Cc2n[nH]c(=O)c3ccccc23)ccc1F)N1CCN(C(=O)C2CC2)CC1 [Olaparib] (partner 8 µM)
Summary of the method: as §1

[3] = compound: C1=CC2=C(C=C(C(=C2N=C1)O)N=NC3=CC4=C(C=C3)C=C(C=C4)S(=O)(=O)O)S(=O)(=O)O + Nc1nc2[nH]cc(CCc3ccc(C(=O)N[C@@H](CCC(=O)O)C(=O)O)cc3)c2c(=O)[nH]1 [Pemetrexed] (partner 0.2 µM)
Summary of the method: as §1

[4] = compound: O=C(NC1CCNCC1)c1n[nH]cc1NC(=O)c1c(Cl)cccc1Cl [AT-7519] + CS(=O)(=O)N1CCN(Cc2cc3nc(-c4cccc5[nH]ncc45)nc(N4CCOCC4)c3s2)CC1 [Pictilisib] (partner 1 µM)
Summary of the method: as §1

Cell Line	relative viability ([1]; first compound 0.01 µM)	relative viability ([1]; first compound 0.03162 µM)	relative viability ([1]; first compound 0.3162 µM)	relative viability ([1]; first compound 1 µM)	relative viability ([2]; first compound 0.08 µM)	relative viability ([2]; first compound 0.253 µM)	relative viability ([2]; first compound 0.8 µM)	relative viability ([2]; first compound 2.53 µM)	relative viability ([2]; first compound 8 µM)	relative viability ([3]; first compound 0.08 µM)	relative viability ([3]; first compound 0.253 µM)	relative viability ([3]; first compound 0.8 µM)	relative viability ([3]; first compound 2.53 µM)	relative viability ([3]; first compound 8 µM)	relative viability ([4]; first compound 0.01 µM)	relative viability ([4]; first compound 0.03162 µM)	relative viability ([4]; first compound 0.3162 µM)	relative viability ([4]; first compound 1 µM)
NCI-H1666	0.998	0.931	1.03	0.959	0.863	0.754	0.762	0.745	0.712	0.824	0.85	0.827	0.891	0.892	0.405	0.425	0.39	0.145
NCI-H1734	0.723	0.831	0.739	0.535	0.609	0.588	0.697	0.642	0.624	0.387	0.43	0.417	0.421	0.443	0.552	0.452	0.439	0.252
NCI-H1755	0.769	0.693	0.839	0.814	0.913	0.864	0.831	0.964	0.874	0.526	0.418	0.459	0.489	0.425	0.444	0.379	0.346	0.297
NCI-H1793	0.514	0.849	0.615	0.767	1	0.762	0.883	0.952	0.891	1	0.844	0.799	0.841	0.888	0.357	0.255	0.31	0.161
NCI-H1915	0.537	0.558	0.588	0.546	0.25	0.286	0.256	0.258	0.258	0.523	0.464	0.473	0.461	0.446	0.987	0.943	0.755	0.417
NCI-H1944	0.547	0.528	0.534	0.436	0.407	0.402	0.426	0.416	0.33	0.61	0.559	0.57	0.634	0.395	0.356	0.334	0.323	0.339
NCI-H1975	0.805	0.679	0.624	0.27	0.868	0.854	0.772	0.795	0.824	0.315	0.297	0.302	0.29	0.303	0.293	0.253	0.231	0.146
NCI-H1993	0.629	0.605	0.82	0.539	1.03	0.931	1.18	1.09	1.1	0.511	0.539	0.6	0.589	0.617	0.783	0.76	0.929	0.606
NCI-H2009	0.782	0.725	0.81	0.746	0.656	0.663	0.681	0.743	0.711	1.07	1.05	0.89	1.04	0.988	0.914	0.763	0.654	0.247
NCI-H2023	0.759	0.503	0.46	0.269	0.509	0.443	0.442	0.528	0.416	0.205	0.223	0.265	0.256	0.14	0.25	0.24	0.207	0.172
NCI-H2085	0.783	0.78	0.74	0.929	0.866	0.757	0.811	0.757	0.722	0.923	0.864	0.846	0.903	0.92	0.44	0.506	0.553	0.382
NCI-H2087	1.01	0.632	0.607	0.206	0.688	0.651	0.622	0.563	0.601	0.643	0.599	0.567	0.602	0.7	1.02	0.882	0.593	0.173
NCI-H2126	0.79	0.731	0.646	0.668	0.957	0.901	0.904	0.893	0.874	0.671	0.641	0.689	0.723	0.75	0.571	0.516	0.464	0.433
NCI-H2170	0.718	0.867	0.869	0.736	0.639	0.557	0.595	0.614	0.576	0.288	0.281	0.284	0.266	0.251	0.305	0.29	0.234	0.255
NCI-H2228	0.406	0.671	0.572	0.517	0.779	0.772	0.658	0.851	0.751	0.305	0.312	0.328	0.334	0.324	0.357	0.371	0.473	0.149
